MIC90 data for three compounds are collected here from patent US10376499B2, “Combination therapy for treatment of resistant bacterial infections” (priority 2014, dated 2019).

In this assay the test system is A. baumannii. The assay is described as follows: MIC90 of common antibiotics+compound 1, 196 contemporary clinical isolates of A. baumannii (Example 4). Particulars: B-lactam + Cmpd 1 (4 μg/mL).

By MIC90 is commonly meant an inhibitory concentration at the 90% level, which refers to growth in some studies and to a panel of isolates in others. For the compound `C[C@H]1[C@H](NC(=O)/C(=N\OC(C)(C)C(=O)O)c2csc(N)n2)C(=O)N1S(=O)(=O)O` [Aztreonam], the MIC90 was above 64 µg/mL. For the compound `CO/N=C(\C(=O)N[C@@H]1C(=O)N2C(C(=O)[O-])=C(C[N+]3(C)CCCC3)CS[C@H]12)c1csc(N)n1` [Cefepime], the MIC90 worked out at 32 µg/mL.

As to `CC(C)(O/N=C(\C(=O)N[C@@H]1C(=O)N2C(C(=O)[O-])=C(C[n+]3ccccc3)CS[C@H]12)c1csc(N)n1)C(=O)O` [Ceftazidime], the MIC90 amounted to 32 µg/mL.
